Laboratory results as given in PubChem BioAssay (NCI).
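Where inhibition never reached the appropriate level, the endpoint shown equals the highest concentration tested. Otherwise, values were interpolated linearly from a five-concentration, 48-hour dose response in 96-well plates. TGI is the concentration that stops growth completely.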

How the values were obtained:
Test in all cases: DTP human tumour cell line panel, 48 h
786-0 renal = tested on: 786-0 renal
A549 NSCLC = tested on: A549 NSCLC
ACHN renal = tested on: ACHN renal
BT-549 breast = tested on: BT-549 breast
CAKI-1 renal = tested on: CAKI-1 renal
CCRF-CEM leukemia = tested on: CCRF-CEM leukemia
COLO 205 colon = tested on: COLO 205 colon
DU-145 prostate = tested on: DU-145 prostate
EKVX NSCLC = tested on: EKVX NSCLC
HCT-116 colon = tested on: HCT-116 colon
HCT-15 colon = tested on: HCT-15 colon
HL-60(TB) leukemia = tested on: HL-60(TB) leukemia
HOP-62 NSCLC = tested on: HOP-62 NSCLC
HOP-92 NSCLC = tested on: HOP-92 NSCLC
HS 578T breast = tested on: HS 578T breast
HT29 colon = tested on: HT29 colon
IGROV1 ovarian = tested on: IGROV1 ovarian
K-562 leukemia = tested on: K-562 leukemia
KM12 colon = tested on: KM12 colon
LOX IMVI melanoma = tested on: LOX IMVI melanoma
M14 melanoma = tested on: M14 melanoma
MALME-3M melanoma = tested on: MALME-3M melanoma
MCF7 breast = tested on: MCF7 breast
MDA-MB-435 = tested on: MDA-MB-435
MDA-N = tested on: MDA-N
MOLT-4 leukemia = tested on: MOLT-4 leukemia
NCI-H226 lung = tested on: NCI-H226 lung
NCI-H23 lung = tested on: NCI-H23 lung
NCI-H460 lung = tested on: NCI-H460 lung
NCI-H522 lung = tested on: NCI-H522 lung
NCI/ADR-RES ovarian = tested on: NCI/ADR-RES ovarian
OVCAR-3 ovarian = tested on: OVCAR-3 ovarian
OVCAR-4 ovarian = tested on: OVCAR-4 ovarian
OVCAR-5 ovarian = tested on: OVCAR-5 ovarian
OVCAR-8 ovarian = tested on: OVCAR-8 ovarian
PC-3 prostate = tested on: PC-3 prostate
RPMI-8226 leukemia = tested on: RPMI-8226 leukemia
SF-268 CNS = tested on: SF-268 CNS
SF-295 CNS = tested on: SF-295 CNS
SK-MEL-2 melanoma = tested on: SK-MEL-2 melanoma
SK-MEL-28 melanoma = tested on: SK-MEL-28 melanoma
SK-MEL-5 melanoma = tested on: SK-MEL-5 melanoma
SK-OV-3 ovarian = tested on: SK-OV-3 ovarian
SN12C renal = tested on: SN12C renal
SNB-19 CNS = tested on: SNB-19 CNS
SNB-75 CNS = tested on: SNB-75 CNS
SR leukemia = tested on: SR leukemia
SW-620 colon = tested on: SW-620 colon
T-47D breast = tested on: T-47D breast
TK-10 renal = tested on: TK-10 renal
UACC-257 melanoma = tested on: UACC-257 melanoma
UACC-62 melanoma = tested on: UACC-62 melanoma
UO-31 renal = tested on: UO-31 renal

`CC1(C)C(OC(=O)c2ccccc2)C[C@]23CCC[C@](C)(C[C@@H](O)C12)C3` (stereo partly drawn) was tested, and the TGI (786-0 renal) was 35.7 µM, the TGI (A549 NSCLC) was 34.1 µM and the TGI (ACHN renal) was 31.9 µM. For the same compound, the TGI (BT-549 breast) was 30.3 µM, the TGI (CAKI-1 renal) was 40.8 µM and the TGI (CCRF-CEM leukemia) was 37.4 µM. It also gave a TGI (COLO 205 colon) of 33.6 µM, a TGI (DU-145 prostate) of 52.4 µM and a TGI (EKVX NSCLC) of 36.8 µM. The TGI (HCT-116 colon) was 29.1 µM, the TGI (HCT-15 colon) was 37.1 µM and the TGI (HL-60(TB) leukemia) was > 100 µM. It also gave a TGI (HOP-62 NSCLC) of 63.4 µM, a TGI (HOP-92 NSCLC) of 32.5 µM and a TGI (HS 578T breast) of 40.4 µM. The TGI (HT29 colon) was 31.4 µM, the TGI (IGROV1 ovarian) was 36.3 µM and the TGI (K-562 leukemia) was 54.8 µM. It also gave a TGI (KM12 colon) of 32.1 µM, a TGI (LOX IMVI melanoma) of 38.9 µM and a TGI (M14 melanoma) of 38.9 µM. For the same compound, the TGI (MALME-3M melanoma) was 38.5 µM, the TGI (MCF7 breast) was 30.6 µM and the TGI (MDA-MB-435) was 32.2 µM. The TGI (MDA-N) was 36.8 µM, the TGI (MOLT-4 leukemia) was 33.7 µM and the TGI (NCI-H226 lung) was 37.5 µM. The TGI (NCI-H23 lung) was 34 µM, the TGI (NCI-H460 lung) was 31.3 µM and the TGI (NCI-H522 lung) was 31.4 µM. The TGI (NCI/ADR-RES ovarian) was 46.7 µM, the TGI (OVCAR-3 ovarian) was 78.9 µM and the TGI (OVCAR-4 ovarian) was 46.6 µM. The TGI (OVCAR-5 ovarian) was 28.6 µM, the TGI (OVCAR-8 ovarian) was 36.2 µM and the TGI (PC-3 prostate) was 28.1 µM. The TGI (RPMI-8226 leukemia) was > 100 µM, the TGI (SF-268 CNS) was 59.5 µM and the TGI (SF-295 CNS) was 28.1 µM. It also gave a TGI (SK-MEL-2 melanoma) of 35.8 µM, a TGI (SK-MEL-28 melanoma) of 29.8 µM and a TGI (SK-MEL-5 melanoma) of 25.8 µM. For the same compound, the TGI (SK-OV-3 ovarian) was > 100 µM, the TGI (SN12C renal) was 34.6 µM and the TGI (SNB-19 CNS) was 47.8 µM. For the same compound, the TGI (SNB-75 CNS) was 34.8 µM, the TGI (SR leukemia) was > 100 µM and the TGI (SW-620 colon) was 27.9 µM. It also gave a TGI (T-47D breast) of 43.7 µM, a TGI (TK-10 renal) of 91.6 µM and a TGI (UACC-257 melanoma) of 35.5 µM. For the same compound, the TGI (UACC-62 melanoma) was 29 µM and the TGI (UO-31 renal) was 35.6 µM.
